Results: ChEMBL document CHEMBL3507680, “University of Dundee, Gates Library screen for HepG2 cell viability”

Assay: Human HepG2 cell viability assay in 384 well format
Type: toxicity, cell-based
Set-up: dose 125 nL, time 70.5 hour; concentration not given beside the values
Details: HepG2 cells, read-out: Inhibition

| SMILES | cytotoxicity at 70.5 h |
| --- | --- |
| COCC(=O)N1C[C@H]2CN(Cc3cccc(F)c3)C(=O)[C@H]2C1 | 8.07% |
| O=C(NC1CC1)N1C[C@H]2CN(Cc3cccc(F)c3)C(=O)[C@H]2C1 | -13.8% |
| Cc1ccc(C(=O)N2C[C@H]3CCC[C@@]3(COCC3CCOCC3)C2)o1 | -5.19% |
| CN1C(=O)CC(c2cnn(C)c2)C12CCN(C(=O)c1ccco1)CC2 (configuration not stated) | -6.73% |
| Cc1ccc(CN2CCN(C)c3ncccc3C2)o1 | -6.49% |
| CN1C(=O)CC(c2cnn(C)c2)C12CCN(C(=O)c1cccn1C)CC2 (configuration not stated) | -13.1% |
| CS(=O)(=O)N[C@H]1CN(C(=O)c2cscn2)[C@@H]2CCCO[C@H]12 | -8.41% |
| O=C(c1ccoc1)N1CC[C@@H]2O[C@@H](COCC3CCOCC3)CC[C@@H]21 | 16% |
| CC(C)Nc1ncnc2c1CCN(C(=O)CC1CCCC1)CC2 | 9.38% |
| Cc1ccsc1C(=O)N1CCc2ncnc(NC(C)C)c2CC1 | -7.7% |
| O=C(c1ccncn1)N1C[C@H]2CCC[C@@]2(COCC2CCOCC2)C1 | -14.6% |
| Cc1nc(COC[C@H]2CCC[C@]23CN(C2CCOC2)CCO3)cs1 (some centres not stated) | 22.4% |
| O=C(NCC1CC1)C1CN(C(=O)Nc2ccccc2)CC12CCOCC2 (configuration not stated) | -5.6% |
| CC(C)NC(=O)c1cc2c(c3ccccc3n2C)n1C(=O)N(C)C | -9.14% |
| CC(C)NC(=O)C1CN(C(=O)c2ccccc2)CC12CCOCC2 (configuration not stated) | -5.57% |
| O=C(c1cccnc1)N1CCC2(CC1)CN(c1ccccn1)CCO2 | -13.7% |
| COc1cc(N2C[C@H]3CCC[C@@H](CN4CCCC4)[C@H]3C2)ncn1 | -8.91% |
| O=C1CC2(CCN(Cc3ccsc3)C2)CN1c1ccc2c(c1)OCO2 (configuration not stated) | 10.9% |
| O=C(NCCN1CCCCC1=O)C1CCC(=O)N(C2CCCC2)C1 (configuration not stated) | -3.21% |
| CCn1c(C2CCN(C(=O)c3cc(CC(C)C)no3)CC2)nn(C)c1=O | 3.74% |
| O=C(CN1C(=O)CCNC1=O)N1CCOC(c2ccc(Cl)c(Cl)c2)C1 (configuration not stated) | -10.7% |
| CCn1c(N)nc2cc(C(=O)N3CCN(CC(F)(F)F)CC3)cnc21 | -13% |

| SMILES | cytotoxicity at 70.5 h |
| --- | --- |
| COc1cccc(-n2c(SCC(=O)O)nnc2-c2cn[nH]c2)c1 | -3.32% |
| CCc1nnc(CN(CC)C(=O)C(C)n2ccnc2C(C)C)o1 (configuration not stated) | -5.37% |
| COCCn1cnnc1CN(C)c1nc(N)nc2c1CCCC2 | 3.03% |
| CC1=C(C(=O)N2CCOC(Cc3cccc(C(F)(F)F)c3)C2)OCCO1 (configuration not stated) | -6.57% |
| Cc1ncsc1CCN(C)Cc1cc2n(n1)CCN(Cc1ncc[nH]1)C2 | 47.1% |
| COC(=O)CNC(=O)N1CCC2(CC1)CC(c1ccccc1)CN(C)C2 (configuration not stated) | 15.9% |
| CC(C)Oc1ccc(CN2CCN3CCN(C)CC3C2)cc1CO (configuration not stated) | -5.57% |
| O=C1CC2(CCN(CCCO)CC2)CN1Cc1ccc(F)c(F)c1 | -5% |
| COc1cccc(OC2CN(C(=O)c3cc(CC(C)C)nn3C)C2)c1 | -1.49% |
| CCn1c(C2CCCN(C(=O)C(C)(C)OC)C2)nn(CCN(C)C)c1=O (configuration not stated) | -1.55% |
| CC(C)n1cccc1C(=O)N1CC[C@@H](NC(=O)c2ccccn2)[C@H](O)C1 | -14.5% |
| Cn1c(CN2CCC(OCc3cccnc3)CC2)cc2ccccc21 | 1.71% |
| CC(O)c1cn(CC2CCN(C(=O)CN3CCCC3=O)CC2)nn1 (configuration not stated) | -10.1% |
| CCC(=O)N1CCN(C(=O)Nc2ccc(Cl)cc2)[C@H]2CS(=O)(=O)C[C@H]21 | -14.3% |
| COc1ccccc1N1CCN(C(=O)CCc2nncn2C)C(C)C1 (configuration not stated) | 17.3% |
| Cc1n[nH]c(C)c1CCN(C)C(=O)c1ccc(CN2CCCCC2)cc1 | 34.3% |
| Cn1ccnc1CN1CCC(c2ccnc(-c3cccc(O)c3)c2)C1 (configuration not stated) | -1.18% |
| COCCn1ccnc1C1CCN(c2cccc(C(=O)O)n2)CC1 | -3.81% |
| CC1CCN(S(=O)(=O)N2C[C@H](c3ccccc3)[C@@H](N)C2)CC1 | 27.7% |
| COCCCN1CC2(CCCN(c3ncnc4[nH]cnc34)C2)CCC1=O (configuration not stated) | -6.06% |
| COc1ccccc1CCC(=O)N1C[C@H](c2ccccc2)[C@@H](N)C1 | -8.71% |
| COc1cccc(-c2nc3c([nH]2)CCNC3)c1F | -12.1% |

| SMILES | cytotoxicity at 70.5 h |
| --- | --- |
| Cc1cc(-c2cc(S(=O)(=O)N3C[C@H](C4CC4)[C@@H](N)C3)c(C)s2)[nH]n1 | -9.13% |
| CC(C)CC(NC(=O)c1cc(C2CC2)n[nH]1)c1ncnn1C (configuration not stated) | 20.9% |
| COc1ccccc1CN1C(=O)O[C@@H]2CN(CC3CC3)C[C@@H]21 | -0.52% |
| CCOc1ccc(C(=O)N2C[C@H]3CC[C@@H]2CN(C(=O)C2CCC2)C3)cc1 | -0.418% |
| O=C(CSCC1CC1)N1CCCN(c2ccc(F)cc2)CC1 | -7.69% |
| CC1(Cc2ccc3c(c2)OCO3)CCCN(S(=O)(=O)N2CCCC2)C1 (configuration not stated) | 0.304% |
| CCCn1ccnc1CN1CCC(Oc2ccc(Cl)cc2)(C(=O)O)CC1 | -10.4% |
| Cc1cc(N(C)CCN(C)C2CCCC2)n2nc(C)cc2n1 | -1.99% |
| COc1ccc(OCc2cc(C(=O)N3CCC(O)CC3)n[nH]2)c(Cl)c1 | -5.72% |
| Cc1nn(C)cc1-c1ccnc(N2CCSCC2)n1 | -1.53% |
| Cn1ncnc1-c1ccnc(NCc2ccncc2)n1 | -13.8% |
| Cc1cccc(C(Nc2nccc(-c3ccc(C)nc3C)n2)C2CC2)n1 (configuration not stated) | -3.12% |
| Cc1c[nH]c(CN2CCCCC2CCn2ccnc2C)c(C)c1=O (configuration not stated) | -8.38% |
| O=C1N(Cc2ccc(F)c(F)c2)CCCC1(O)CNCc1cccnc1 (configuration not stated) | -4.19% |
| CCC(C)N(Cc1ccc(C)cc1)Cc1c[nH]c(C)n1 (configuration not stated) | -5.02% |
| COc1ccc(CN2CCn3cncc3C2)cc1Cn1cncn1 | -5.89% |
| CCOc1ccc(C(=O)N2CCC(Oc3ccccc3)(C(=O)O)CC2)o1 | -3.49% |
| c1ccc(Cc2noc(-c3ccc(NCC4CCCCO4)nc3)n2)cc1 (configuration not stated) | 26.1% |
| Cc1ncc(S(C)(=O)=O)c(N2Cc3ccccc3C2)n1 | 2.76% |
| O=C(O)c1cc(-n2cc3c(n2)CCC3)cc(S(=O)(=O)NC2CCCC2)c1 | 26.3% |
| COc1ccc(C(=O)C2CCCN(c3nccc(N)n3)C2)c(C)c1 (configuration not stated) | -4.73% |
| Cc1nc(N2CCC3(CCCNC3=O)C2)nc2c1CCCC2 (configuration not stated) | -3.11% |

| SMILES | cytotoxicity at 70.5 h |
| --- | --- |
| Cc1cc(C)c(C(=O)NC2CCN(c3ncccc3C#N)CC2)c(=O)[nH]1 | -11.1% |
| CCn1ccnc1C1CCN(Cc2cccc(C)n2)CC1 | 2.62% |
| CC(C)=CCN1CCN(C(=O)c2snnc2C)[C@H]2CS(=O)(=O)C[C@H]21 | -9.09% |
| Cc1cccc(=O)n1CCCNc1nc(N(C)C)nc2c1CCNC2 | 18.8% |
| COc1ccc2[nH]nc(CN3CCN(Cc4cccc(F)c4)CC3)c2c1 | 4.06% |
| Cc1nc[nH]c1CN1CCCC12CCN(c1nc3ccccc3s1)CC2 | -1.37% |
| Cc1nc(CCN)cc(N2CCC(O)(c3ccc(Cl)cc3)CC2)n1 | 19.3% |
| Nc1nnc(CCNc2ncnc3c2CCN(C(=O)C2CC2)C3)s1 | -4.19% |
| O=C(NCCCn1cnnc1)C1CCCN(C2CCCC2)C1 (configuration not stated) | 26.7% |
| COc1ccc(CCN)cc1-c1ccc(S(C)(=O)=O)cc1 | -8.83% |
| CN(C)c1cnn(CC(=O)N2CCN(c3ccccc3)CC2)c(=O)c1 | -5.83% |
| CCc1cc(C(=O)N2CCCn3nc(CCC(=O)O)cc3C2)cs1 | -8.44% |
| O=S(=O)(NCCn1cc(C2CCOC2)nn1)c1ccc(Cl)cc1 (configuration not stated) | 17.5% |
| COc1ccc(OC)c(C2CCN(C(=O)C3CCOCC3)C2)c1 (configuration not stated) | -6.78% |
| Cc1cc(F)ccc1OC1(C(=O)O)CCN(Cc2c[nH]cn2)CC1 | -4.85% |
| CCC[C@H]1CN(Cc2ccc(N(C)C)nc2)C[C@@H]1NC(=O)CSC | -6.28% |
| COc1ccc(CN2CCC3(CC2)CCN(c2cnn(C)c2)C3=O)cc1 | -6.09% |
| CCN1CCOCC12CCN(C(=O)Cc1ccccc1)CC2 | -11.2% |
| O=C(C1CC1)N1CCC2(CC1)COCCN2Cc1ccc(F)cc1 | 0.119% |
| CC(C)C(=O)N1CCC2(CC1)COCCN2Cc1ccc(F)cc1 | -2.33% |
| CN(C)CCOC[C@H]1CC[C@H]2[C@H](CCN2C(=O)c2ccoc2)O1 | -12.4% |
| O=C1[C@H]2CN(Cc3nccs3)C[C@H]2CN1c1cncnc1 | -8.02% |

| SMILES | cytotoxicity at 70.5 h |
| --- | --- |
| COc1cc(N2CC[C@@H](O)[C@@H]2Cc2ccncc2)ncn1 | -10% |
| Fc1cnc(N2CC3(CCN(Cc4ccsc4)C3)C2)nc1 | -6.5% |
| CS(=O)(=O)N[C@@H]1CN(C(=O)c2cccnc2)[C@@H]2CCCO[C@@H]21 | -5.12% |
| COCC1CN(CC2CC2)Cc2nccn2C1 (configuration not stated) | -6.11% |
| O=C1[C@H]2CN(Cc3ccco3)C[C@H]2CN1c1ccsc1 | -11.1% |
| Cc1noc(C)c1CN1CC[C@H]2OCC[C@@]2(C(=O)N(C)C)C1 | -10.5% |
| CN1CCO[C@H]2CN(C(=O)c3ccoc3)C[C@H]21 | -7.03% |
| COCC(=O)N1CCC2(CC1)CN(c1ccccn1)CCO2 | -7.15% |
| COCCN1CCOCC12CCN(C(=O)c1ccncc1)CC2 | -9.1% |
| COCCN1CCOCC12CCN(C(=O)c1cccnc1)CC2 | -8.13% |
| Cn1cc(N2CC3(CCN(Cc4ccsc4)CC3)OCC2=O)cn1 | 13.1% |
| COc1ccccc1CN1C[C@@H]2COC[C@]2(COCc2ccncc2)C1 | -10.2% |
| O=C1[C@H]2CN(Cc3ccccn3)C[C@H]2CN1c1ccsc1 | -6.18% |
| O=C1[C@H]2CN(Cc3ccncc3)C[C@H]2CN1c1ccsc1 | -10.1% |
| COCCNC(=O)[C@@]12CCO[C@@H]1CCN(Cc1ccncc1)C2 | -10.2% |
| O=C1CC2(CCN(Cc3ccncc3)C2)CN1c1ccc2c(c1)OCO2 (configuration not stated) | 30% |
| COCCN(C)C1COC2(CCN(Cc3ccccn3)CC2)C1 (configuration not stated) | 11.6% |
| Cc1ccc(N2CCO[C@H]3CN(Cc4cccnc4)C[C@H]32)nn1 | 12.6% |
| CN1CCN(CC2CN(CC3CC3)Cc3nccn3C2)CC1 (configuration not stated) | -6.02% |
